Data published in ChEMBL document CHEMBL4649986, “Chemical probes and inhibitors of bromodomains outside the BET family” (Medchemcomm, 2016).

Legend:
[1] = molecular target: Histone acetyltransferase KAT2A (Homo sapiens) (UniProt Q92830); settings: Compound concentration 10.0 uM, Protein concentration 2.0 uM
[2] = molecular target: Protein polybromo-1 (Homo sapiens) (UniProt Q86U86); settings: Compound concentration 10.0 uM, Protein concentration 2.0 uM
[3] = molecular target: Bromodomain adjacent to zinc finger domain protein 2A (Homo sapiens) (UniProt Q9UIF9); settings: Compound concentration 10.0 uM, Protein concentration 2.0 uM
[4] = molecular target: Bromodomain-containing protein 3 (Homo sapiens) (UniProt Q15059); settings: Compound concentration 10.0 uM, Protein concentration 2.0 uM
[5] = molecular target: Histone acetyltransferase p300 (Homo sapiens) (UniProt Q09472); settings: Compound concentration 10.0 uM, Protein concentration 2.0 uM
[6] = molecular target: ATPase family AAA domain-containing protein 2B (Homo sapiens) (UniProt Q9ULI0); settings: Compound concentration 10.0 uM, Protein concentration 2.0 uM
[7] = molecular target: Protein polybromo-1 (Homo sapiens) (UniProt Q86U86); settings: Compound concentration 10.0 uM, Protein concentration 2.0 uM; remark: listed apart in the source
[8] = molecular target: Bromodomain testis-specific protein (Homo sapiens) (UniProt Q58F21); settings: Compound concentration 10.0 uM, Protein concentration 2.0 uM
[9] = molecular target: SWI/SNF-related matrix-associated actin-dependent regulator of chromatin subfamily A member 4 (Homo sapiens) (UniProt P51532); settings: Compound concentration 10.0 uM, Protein concentration 2.0 uM
[10] = molecular target: Protein polybromo-1 (Homo sapiens) (UniProt Q86U86); settings: Compound concentration 10.0 uM, Protein concentration 2.0 uM; remark: listed apart in the source
[11] = molecular target: Bromodomain testis-specific protein (Homo sapiens) (UniProt Q58F21); settings: Compound concentration 10.0 uM, Protein concentration 2.0 uM; remark: listed apart in the source
[12] = molecular target: Bromodomain-containing protein 7 (Homo sapiens) (UniProt Q9NPI1); settings: Compound concentration 10.0 uM, Protein concentration 2.0 uM
[13] = molecular target: Transcription intermediary factor 1-beta (Homo sapiens) (UniProt Q13263); settings: Compound concentration 10.0 uM, Protein concentration 2.0 uM
[14] = molecular target: Transcription initiation factor TFIID subunit 1 (Homo sapiens) (UniProt P21675); settings: Compound concentration 10.0 uM, Protein concentration 2.0 uM
[15] = molecular target: Tyrosine-protein kinase BAZ1B (Homo sapiens) (UniProt Q9UIG0); settings: Compound concentration 10.0 uM, Protein concentration 2.0 uM
Peregrin (Homo sapiens) [16] = molecular target: Peregrin (Homo sapiens) (UniProt P55201); settings: Compound concentration 10.0 uM, Protein concentration 2.0 uM
Peregrin = Peregrin (Homo sapiens, UniProt P55201); assay: Alphascreen assay. Binding to BRPF1B (domain start/stop: M626-G740) by alphascreen assay
[17] = molecular target: T1, Chromatin remodeling regulator CECR2 (Homo sapiens, UniProt Q9BXF3); assay: Alphascreen assay. Binding to CECR2A (domain start/stop: P420-D543) by alphascreen assay
Target sequence in this assay (Q9BXF3 whole entry): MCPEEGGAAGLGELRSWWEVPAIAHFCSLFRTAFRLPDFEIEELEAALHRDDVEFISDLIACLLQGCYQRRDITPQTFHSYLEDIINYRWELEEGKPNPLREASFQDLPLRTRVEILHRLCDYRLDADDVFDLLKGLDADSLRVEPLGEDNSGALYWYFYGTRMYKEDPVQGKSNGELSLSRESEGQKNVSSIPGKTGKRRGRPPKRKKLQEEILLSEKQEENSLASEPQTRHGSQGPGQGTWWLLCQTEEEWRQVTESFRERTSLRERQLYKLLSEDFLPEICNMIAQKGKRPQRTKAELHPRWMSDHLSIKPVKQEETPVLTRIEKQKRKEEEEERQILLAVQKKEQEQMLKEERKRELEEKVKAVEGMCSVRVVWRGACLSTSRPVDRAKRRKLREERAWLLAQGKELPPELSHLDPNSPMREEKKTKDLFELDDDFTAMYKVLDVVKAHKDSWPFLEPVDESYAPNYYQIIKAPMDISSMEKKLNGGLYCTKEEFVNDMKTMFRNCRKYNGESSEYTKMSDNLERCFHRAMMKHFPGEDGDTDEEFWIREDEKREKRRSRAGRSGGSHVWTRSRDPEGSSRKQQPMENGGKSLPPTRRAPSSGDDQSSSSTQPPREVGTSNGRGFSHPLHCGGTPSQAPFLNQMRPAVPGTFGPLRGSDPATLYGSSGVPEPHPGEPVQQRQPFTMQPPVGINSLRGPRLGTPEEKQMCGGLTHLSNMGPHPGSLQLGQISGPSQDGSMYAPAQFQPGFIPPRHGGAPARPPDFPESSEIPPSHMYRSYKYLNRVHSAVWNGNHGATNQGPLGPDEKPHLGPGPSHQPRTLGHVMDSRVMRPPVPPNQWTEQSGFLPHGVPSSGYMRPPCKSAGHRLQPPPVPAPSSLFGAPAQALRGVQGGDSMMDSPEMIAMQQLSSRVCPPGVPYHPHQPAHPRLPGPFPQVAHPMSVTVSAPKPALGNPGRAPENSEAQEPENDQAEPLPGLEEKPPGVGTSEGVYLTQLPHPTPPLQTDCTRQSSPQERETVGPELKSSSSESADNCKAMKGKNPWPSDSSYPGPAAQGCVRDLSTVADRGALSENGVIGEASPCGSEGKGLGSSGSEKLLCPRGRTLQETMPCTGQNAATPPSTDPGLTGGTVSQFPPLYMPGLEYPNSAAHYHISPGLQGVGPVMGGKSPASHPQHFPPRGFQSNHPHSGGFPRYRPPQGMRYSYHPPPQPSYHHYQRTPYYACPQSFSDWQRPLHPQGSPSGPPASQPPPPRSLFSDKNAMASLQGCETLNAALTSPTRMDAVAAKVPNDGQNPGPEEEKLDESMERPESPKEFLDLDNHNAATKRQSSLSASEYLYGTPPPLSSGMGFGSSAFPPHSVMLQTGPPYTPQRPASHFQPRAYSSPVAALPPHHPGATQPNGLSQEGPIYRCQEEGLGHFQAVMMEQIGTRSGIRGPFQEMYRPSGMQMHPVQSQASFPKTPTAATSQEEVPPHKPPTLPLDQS

[18] = molecular target: Nuclear body protein SP140-like protein (Homo sapiens) (UniProt Q9H930); settings: Compound concentration 10.0 uM, Protein concentration 2.0 uM
[19] = molecular target: T2, Nucleosome-remodeling factor subunit BPTF (Homo sapiens, UniProt Q12830); assay: Alphascreen assay. Binding to FALZA (domain start/stop: S2791-H2911) by alphascreen assay
[20] = molecular target: Bromodomain adjacent to zinc finger domain protein 2B (Homo sapiens) (UniProt Q9UIF8); settings: Compound concentration 10.0 uM, Protein concentration 2.0 uM
[21] = molecular target: Bromodomain-containing protein 9 (Homo sapiens) (UniProt Q9H8M2); settings: Compound concentration 10.0 uM, Protein concentration 2.0 uM
[22] = molecular target: Bromodomain-containing protein 4 (Homo sapiens) (UniProt O60885); settings: Compound concentration 10.0 uM, Protein concentration 2.0 uM
[23] = molecular target: Histone-lysine N-methyltransferase ASH1L (Homo sapiens) (UniProt Q9NR48); settings: Compound concentration 10.0 uM, Protein concentration 2.0 uM
[24] = molecular target: T1, Chromatin remodeling regulator CECR2; assay: Alphascreen assay. Binding to CECR2A (domain start/stop: P420-H538) by alphascreen assay
Target sequence in this assay (Q9BXF3 whole entry): as above

[25] = molecular target: Bromodomain-containing protein 3 (Homo sapiens) (UniProt Q15059); settings: Compound concentration 10.0 uM, Protein concentration 2.0 uM; remark: listed apart in the source
[26] = molecular target: Transcription intermediary factor 1-alpha (Homo sapiens) (UniProt O15164); settings: Compound concentration 10.0 uM, Protein concentration 2.0 uM
[27] = molecular target: Bromodomain and WD repeat-containing protein 1 (Homo sapiens) (UniProt Q9NSI6); settings: Compound concentration 10.0 uM, Protein concentration 2.0 uM
[28] = molecular target: Bromodomain-containing protein 1 (Homo sapiens) (UniProt O95696); settings: Compound concentration 10.0 uM, Protein concentration 2.0 uM
[29] = molecular target: SWI/SNF-related matrix-associated actin-dependent regulator of chromatin subfamily A member 2 (Homo sapiens) (UniProt P51531); settings: Compound concentration 10.0 uM, Protein concentration 2.0 uM
[30] = molecular target: Transcription initiation factor TFIID subunit 1-like (Homo sapiens) (UniProt Q8IZX4); settings: Compound concentration 10.0 uM, Protein concentration 2.0 uM
Chain of Transcription initiation factor TFIID subunit 1-like (Homo sapiens) (Q8IZX4 whole entry): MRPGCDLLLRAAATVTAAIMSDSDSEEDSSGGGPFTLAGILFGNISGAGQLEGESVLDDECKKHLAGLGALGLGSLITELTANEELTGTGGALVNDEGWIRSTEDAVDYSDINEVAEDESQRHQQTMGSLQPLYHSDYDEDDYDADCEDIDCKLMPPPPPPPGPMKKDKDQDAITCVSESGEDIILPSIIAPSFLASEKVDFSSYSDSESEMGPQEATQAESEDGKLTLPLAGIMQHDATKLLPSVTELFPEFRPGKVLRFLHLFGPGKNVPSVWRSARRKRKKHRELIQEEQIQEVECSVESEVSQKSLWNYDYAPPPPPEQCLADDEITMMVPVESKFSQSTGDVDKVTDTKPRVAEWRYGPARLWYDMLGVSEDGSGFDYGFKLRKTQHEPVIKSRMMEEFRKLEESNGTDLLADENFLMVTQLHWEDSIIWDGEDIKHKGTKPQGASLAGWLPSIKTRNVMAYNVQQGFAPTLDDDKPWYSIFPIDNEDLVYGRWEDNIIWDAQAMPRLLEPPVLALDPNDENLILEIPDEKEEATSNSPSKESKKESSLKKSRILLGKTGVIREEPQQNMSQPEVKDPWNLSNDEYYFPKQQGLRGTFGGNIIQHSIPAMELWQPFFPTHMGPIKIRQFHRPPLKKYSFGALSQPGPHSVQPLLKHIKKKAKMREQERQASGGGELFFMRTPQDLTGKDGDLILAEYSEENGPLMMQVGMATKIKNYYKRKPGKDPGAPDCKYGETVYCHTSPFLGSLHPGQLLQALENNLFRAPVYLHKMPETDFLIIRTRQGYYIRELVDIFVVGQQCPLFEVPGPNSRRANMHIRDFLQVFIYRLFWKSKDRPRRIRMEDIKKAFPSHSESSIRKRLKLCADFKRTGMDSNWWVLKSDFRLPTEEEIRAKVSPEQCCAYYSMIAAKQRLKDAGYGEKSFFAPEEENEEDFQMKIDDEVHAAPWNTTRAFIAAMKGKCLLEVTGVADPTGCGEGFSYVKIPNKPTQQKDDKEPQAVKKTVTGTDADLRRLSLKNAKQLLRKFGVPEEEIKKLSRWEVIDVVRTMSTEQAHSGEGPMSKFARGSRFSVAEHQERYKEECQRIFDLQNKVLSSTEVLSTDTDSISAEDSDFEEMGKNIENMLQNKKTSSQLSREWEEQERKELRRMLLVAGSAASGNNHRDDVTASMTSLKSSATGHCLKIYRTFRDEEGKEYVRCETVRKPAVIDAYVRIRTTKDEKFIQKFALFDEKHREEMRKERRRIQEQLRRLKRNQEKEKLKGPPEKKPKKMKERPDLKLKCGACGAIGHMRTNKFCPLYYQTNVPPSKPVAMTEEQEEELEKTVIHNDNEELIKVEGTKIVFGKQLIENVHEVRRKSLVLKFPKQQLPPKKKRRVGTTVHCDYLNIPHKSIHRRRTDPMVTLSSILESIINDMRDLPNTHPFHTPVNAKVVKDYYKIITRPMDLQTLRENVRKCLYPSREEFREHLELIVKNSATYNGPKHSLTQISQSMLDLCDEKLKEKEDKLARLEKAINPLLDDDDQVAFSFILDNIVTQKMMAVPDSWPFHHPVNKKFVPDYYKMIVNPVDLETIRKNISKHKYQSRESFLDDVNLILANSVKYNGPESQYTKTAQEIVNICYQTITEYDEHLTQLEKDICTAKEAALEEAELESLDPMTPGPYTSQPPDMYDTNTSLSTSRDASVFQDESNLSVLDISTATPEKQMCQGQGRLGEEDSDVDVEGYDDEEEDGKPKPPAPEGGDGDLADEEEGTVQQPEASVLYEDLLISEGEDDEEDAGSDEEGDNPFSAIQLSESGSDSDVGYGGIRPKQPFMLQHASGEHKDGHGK

[31] = molecular target: Protein polybromo-1 (Homo sapiens) (UniProt Q86U86); settings: Compound concentration 10.0 uM, Protein concentration 2.0 uM; remark: listed apart in the source
[32] = molecular target: Histone-lysine N-methyltransferase 2A (Homo sapiens) (UniProt Q03164); settings: Compound concentration 10.0 uM, Protein concentration 2.0 uM
[33] = molecular target: T1, Chromatin remodeling regulator CECR2; settings: Compound concentration 10.0 uM, Protein concentration 2.0 uM
Target sequence in this assay (Q9BXF3 whole entry, looked up): as the sequence (Q9BXF3 whole entry) above

[34] = molecular target: Protein polybromo-1 (Homo sapiens) (UniProt Q86U86); settings: Compound concentration 10.0 uM, Protein concentration 2.0 uM; remark: listed apart in the source
[35] = molecular target: Nuclear body protein SP140 (Homo sapiens) (UniProt Q13342); settings: Compound concentration 10.0 uM, Protein concentration 2.0 uM
[36] = molecular target: ATPase family AAA domain-containing protein 2 (Homo sapiens) (UniProt Q6PL18); settings: Compound concentration 10.0 uM, Protein concentration 2.0 uM
[37] = molecular target: Transcription initiation factor TFIID subunit 1-like (Homo sapiens) (UniProt Q8IZX4); settings: Compound concentration 10.0 uM, Protein concentration 2.0 uM; remark: listed apart in the source
[38] = molecular target: Histone acetyltransferase KAT2B (Homo sapiens) (UniProt Q92831); settings: Compound concentration 10.0 uM, Protein concentration 2.0 uM
[39] = molecular target: T2, Nucleosome-remodeling factor subunit BPTF; settings: Compound concentration 10.0 uM, Protein concentration 2.0 uM
[40] = molecular target: Bromodomain and WD repeat-containing protein 3 (Homo sapiens) (UniProt Q6RI45); settings: Compound concentration 10.0 uM, Protein concentration 2.0 uM
[41] = molecular target: Bromodomain adjacent to zinc finger domain protein 1A (Homo sapiens) (UniProt Q9NRL2); settings: Compound concentration 10.0 uM, Protein concentration 2.0 uM
[42] = molecular target: Bromodomain and PHD finger-containing protein 3 (Homo sapiens) (UniProt Q9ULD4); settings: Compound concentration 10.0 uM, Protein concentration 2.0 uM
[43] = molecular target: Bromodomain-containing protein 2 (Homo sapiens) (UniProt P25440); settings: Compound concentration 10.0 uM, Protein concentration 2.0 uM
[44] = molecular target: Transcription initiation factor TFIID subunit 1 (Homo sapiens) (UniProt P21675); settings: Compound concentration 10.0 uM, Protein concentration 2.0 uM; remark: listed apart in the source
[45] = molecular target: CREB-binding protein (Homo sapiens) (UniProt Q92793); settings: Compound concentration 10.0 uM, Protein concentration 2.0 uM
Peregrin (Homo sapiens) [46] = molecular target: Peregrin (Homo sapiens) (UniProt P55201); settings: Compound concentration 10.0 uM, Protein concentration 2.0 uM; remark: listed apart in the source
[47] = molecular target: Protein polybromo-1 (Homo sapiens) (UniProt Q86U86); settings: Compound concentration 10.0 uM, Protein concentration 2.0 uM; remark: listed apart in the source
[48] = molecular target: PH-interacting protein (Homo sapiens) (UniProt Q8WWQ0); settings: Compound concentration 10.0 uM, Protein concentration 2.0 uM
[49] = molecular target: Bromodomain-containing protein 2 (Homo sapiens) (UniProt P25440); settings: Compound concentration 10.0 uM, Protein concentration 2.0 uM; remark: listed apart in the source

Chain of Protein polybromo-1 (Homo sapiens) (Q86U86 whole entry, the tested form may be a part): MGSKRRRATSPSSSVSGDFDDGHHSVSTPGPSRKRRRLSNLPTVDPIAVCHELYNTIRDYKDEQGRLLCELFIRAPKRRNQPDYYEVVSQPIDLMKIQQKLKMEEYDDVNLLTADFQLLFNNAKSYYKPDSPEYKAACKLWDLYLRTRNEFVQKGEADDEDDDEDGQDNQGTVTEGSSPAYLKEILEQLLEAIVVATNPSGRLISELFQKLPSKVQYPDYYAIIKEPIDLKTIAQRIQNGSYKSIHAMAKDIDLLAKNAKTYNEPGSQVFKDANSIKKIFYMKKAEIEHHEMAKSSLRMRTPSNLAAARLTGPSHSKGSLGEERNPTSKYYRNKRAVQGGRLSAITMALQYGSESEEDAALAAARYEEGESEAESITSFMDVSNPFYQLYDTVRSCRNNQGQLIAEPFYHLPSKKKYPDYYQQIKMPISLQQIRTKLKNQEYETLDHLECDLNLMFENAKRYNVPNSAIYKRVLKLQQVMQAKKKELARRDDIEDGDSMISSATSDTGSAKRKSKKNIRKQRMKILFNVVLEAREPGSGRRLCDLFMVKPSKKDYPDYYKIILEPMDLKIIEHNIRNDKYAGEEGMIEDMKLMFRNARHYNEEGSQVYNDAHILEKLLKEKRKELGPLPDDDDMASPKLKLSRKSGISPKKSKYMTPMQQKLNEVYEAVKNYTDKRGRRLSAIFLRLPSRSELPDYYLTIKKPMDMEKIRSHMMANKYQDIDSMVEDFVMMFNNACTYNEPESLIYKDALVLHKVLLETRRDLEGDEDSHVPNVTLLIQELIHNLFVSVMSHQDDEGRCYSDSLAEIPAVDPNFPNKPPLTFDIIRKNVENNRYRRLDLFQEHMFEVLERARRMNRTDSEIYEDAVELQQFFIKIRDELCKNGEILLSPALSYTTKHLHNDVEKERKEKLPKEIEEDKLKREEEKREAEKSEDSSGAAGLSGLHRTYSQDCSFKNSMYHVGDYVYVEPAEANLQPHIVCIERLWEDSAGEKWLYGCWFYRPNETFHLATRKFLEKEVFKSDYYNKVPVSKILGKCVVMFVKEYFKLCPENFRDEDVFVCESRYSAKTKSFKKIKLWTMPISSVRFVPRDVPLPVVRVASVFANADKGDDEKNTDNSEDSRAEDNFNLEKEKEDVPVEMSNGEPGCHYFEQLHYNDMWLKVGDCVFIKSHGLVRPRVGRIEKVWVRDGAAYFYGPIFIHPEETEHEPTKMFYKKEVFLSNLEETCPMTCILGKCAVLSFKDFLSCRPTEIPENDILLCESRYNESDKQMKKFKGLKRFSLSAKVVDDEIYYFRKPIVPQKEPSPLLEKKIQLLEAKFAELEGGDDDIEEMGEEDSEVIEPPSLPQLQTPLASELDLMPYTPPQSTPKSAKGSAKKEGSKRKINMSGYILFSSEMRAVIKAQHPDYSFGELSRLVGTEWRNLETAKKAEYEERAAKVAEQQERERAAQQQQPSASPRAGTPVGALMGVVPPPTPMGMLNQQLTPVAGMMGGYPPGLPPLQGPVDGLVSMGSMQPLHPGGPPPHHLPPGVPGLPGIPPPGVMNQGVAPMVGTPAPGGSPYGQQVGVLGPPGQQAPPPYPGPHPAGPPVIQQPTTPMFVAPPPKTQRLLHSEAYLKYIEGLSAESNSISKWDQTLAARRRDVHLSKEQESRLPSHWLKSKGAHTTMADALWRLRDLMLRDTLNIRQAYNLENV

## CCCS(=O)(=O)c1nc(NC2CC2)cc(-c2ccc3c(ccn3C3CC(C)(C)NC(C)(C)C3)c2)n1
[1]
  ΔTm: 1.2 °C
[2]
  ΔTm: 0.88 °C
[3]
  ΔTm: 0.14 °C
[4]
  ΔTm: 0.37 °C
[5]
  ΔTm: 0.85 °C
[6]
  ΔTm: 0.82 °C
[7]
  ΔTm: 0.48 °C
[8]
  ΔTm: 0.51 °C
[9]
  ΔTm: 1.26 °C
[10]
  ΔTm: -0.21 °C
[11]
  ΔTm: -0.15 °C
[12]
  ΔTm: 1.3 °C
[13]
  ΔTm: 1.37 °C
[14]
  ΔTm: 1.25 °C
[15]
  ΔTm: -0.35 °C
Peregrin (Homo sapiens) [16]
  ΔTm: 0.16 °C
Peregrin
  IC50: 4400 nM
[17]
  IC50: 37.5 nM
[18]
  ΔTm: 0.62 °C
[19]
  IC50: 1460 nM
[20]
  ΔTm: 0.4 °C
[21]
  ΔTm: 0.96 °C
[22]
  ΔTm: 1.85 °C
[23]
  ΔTm: 0.48 °C
[24]
  IC50: 19.3 nM
[25]
  ΔTm: 0.35 °C
[26]
  ΔTm: 1.38 °C
[27]
  ΔTm: 1.71 °C
[28]
  ΔTm: 0.34 °C
[29]
  ΔTm: 0.87 °C
[30]
  ΔTm: 0.73 °C
[31]
  ΔTm: 0.34 °C
[32]
  ΔTm: 0.08 °C
[33]
  ΔTm: 12.6 °C
[34]
  ΔTm: 0.51 °C
[35]
  ΔTm: 0.58 °C
[36]
  ΔTm: 1.07 °C
[37]
  ΔTm: 1.56 °C
[38]
  ΔTm: 0.62 °C
[39]
  ΔTm: 1.67 °C
[40]
  ΔTm: -0.86 °C
[41]
  ΔTm: -0.77 °C
[42]
  ΔTm: 0.48 °C
[43]
  ΔTm: 0.39 °C
[44]
  ΔTm: 1.09 °C
[45]
  ΔTm: 0.36 °C
Peregrin (Homo sapiens) [46]
  ΔTm: 0.38 °C
[47]
  ΔTm: 0.63 °C
[48]
  ΔTm: -0.17 °C
[49]
  ΔTm: 0.54 °C
